This note sets out measurements from ChEMBL document CHEMBL4011590, “Structure-activity relationship studies on 3,5-dinitrophenyl tetrazoles as antitubercular agents” (Eur J Med Chem, 2017).

Common to all, as to assay type: functional
For assay [1], the system named is Mycobacterium tuberculosis. Kind of assay: Antimycobacterial activity against Mycobacterium tuberculosis H37Rv CNCTC My 331/88 after 14 days by micromethod. The conditions noted are these: H37Rv CNCTC My 331/88, 336 h.
Assay [2] deals with Mycobacterium kansasii. In words: Antimycobacterial activity against Mycobacterium kansasii CNCTC My 235/80 after 21 days by micromethod. The note with it: CNCTC My 235/80, 504 h.
Assay [3] concerns Mycobacterium kansasii. Kind of assay: Antimycobacterial activity against Mycobacterium kansasii CNCTC My 235/80 after 7 days by micromethod. The note with it: CNCTC My 235/80, 168 h.
Assay [4] deals with Mycobacterium avium. In words: Antimycobacterial activity against Mycobacterium avium CNCTC My 330/80 after 21 days by micromethod. The conditions noted are these: CNCTC My 330/80, 504 h.
Assay [5] concerns Mycobacterium kansasii. In words: Antimycobacterial activity against Mycobacterium kansasii isolate 6509/96 after 21 days by micromethod. The conditions noted are these: isolate 6509/96, 504 h.
The test system of assay [6] is Mycobacterium kansasii. In words: Antimycobacterial activity against Mycobacterium kansasii isolate 6509/96 after 7 days by micromethod. The conditions noted are these: isolate 6509/96, 168 h.
Assay [7] deals with Mycobacterium tuberculosis. In words: Antimycobacterial activity against Mycobacterium tuberculosis H37Rv CNCTC My 331/88 after 21 days by micromethod. The note with it: H37Rv CNCTC My 331/88, 504 h.
Assay [8] deals with Mycobacterium avium. Kind of assay: Antimycobacterial activity against Mycobacterium avium CNCTC My 330/80 after 14 days by micromethod. The conditions noted are these: CNCTC My 330/80, 336 h.
The test system of assay [9] is Mycobacterium kansasii. Kind of assay: Antimycobacterial activity against Mycobacterium kansasii CNCTC My 235/80 after 14 days by micromethod. The conditions noted are these: CNCTC My 235/80, 336 h.
For assay [10], the system named is Mycobacterium kansasii. In words: Antimycobacterial activity against Mycobacterium kansasii isolate 6509/96 after 14 days by micromethod. The note with it: isolate 6509/96, 336 h.

≈ marks a conversion by molar mass, not a printed value.

Turning to `COc1ccc(-n2nnnc2Sc2cc([N+](=O)[O-])cc([N+](=O)[O-])c2)cc1`, the MIC99 in assay [1] was 1 µM (≈ 0.374 µg/mL); against Mycobacterium kansasii [2] it was 4 µM (≈ 1.5 µg/mL); against Mycobacterium kansasii [3], 2 µM (≈ 0.749 µg/mL); in the assay on Mycobacterium avium [4] it was 16 µM (≈ 5.99 µg/mL); against Mycobacterium kansasii [5] it was 4 µM (≈ 1.5 µg/mL); in the assay on Mycobacterium kansasii [6], 2 µM (≈ 0.749 µg/mL). Also, the MIC99 in assay [7] was determined as 1 µM (≈ 0.374 µg/mL); in the assay on Mycobacterium avium [8], 8 µM (≈ 2.99 µg/mL); in the assay on Mycobacterium kansasii [9] it was 4 µM (≈ 1.5 µg/mL); against Mycobacterium kansasii [10], 4 µM (≈ 1.5 µg/mL).

Take `O=[N+]([O-])c1cc(Sc2nnnn2-c2ccccc2)cc([N+](=O)[O-])c1`: the MIC99 came out at 2 µM (≈ 0.689 µg/mL) in [1]; 16 µM (≈ 5.51 µg/mL) in the assay on Mycobacterium kansasii [2]; 8 µM (≈ 2.75 µg/mL) with Mycobacterium kansasii [3]; 16 µM (≈ 5.51 µg/mL) in the assay on Mycobacterium avium [4]; 8 µM (≈ 2.75 µg/mL) in the assay on Mycobacterium kansasii [5]; 4 µM (≈ 1.38 µg/mL) in the assay with Mycobacterium kansasii [6]. Also, the MIC99 was determined as 4 µM (≈ 1.38 µg/mL) in assay [7], 16 µM (≈ 5.51 µg/mL) in the assay with Mycobacterium avium [8], 8 µM (≈ 2.75 µg/mL) in the assay on Mycobacterium kansasii [9] and 8 µM (≈ 2.75 µg/mL) in the assay with Mycobacterium kansasii [10].

Turning to `Cn1nnc(-c2cc([N+](=O)[O-])cc([N+](=O)[O-])c2)n1`, the MIC99 stood at 32 µM (≈ 8.01 µg/mL) in [1]; 125 µM (≈ 31.3 µg/mL) with Mycobacterium kansasii [2]; 62.5 µM (≈ 15.6 µg/mL) in the assay on Mycobacterium kansasii [3]; 125 µM (≈ 31.3 µg/mL) against Mycobacterium avium [4]; 62.5 µM (≈ 15.6 µg/mL) with Mycobacterium kansasii [5]; 62.5 µM (≈ 15.6 µg/mL) against Mycobacterium kansasii [6]. The MIC99 was determined as 32 µM (≈ 8.01 µg/mL) in [7], 62.5 µM (≈ 15.6 µg/mL) in the assay on Mycobacterium avium [8], 125 µM (≈ 31.3 µg/mL) against Mycobacterium kansasii [9] and 62.5 µM (≈ 15.6 µg/mL) against Mycobacterium kansasii [10].

As for `O=[N+]([O-])c1cc(-c2nnn(CCCCSc3nnnn3-c3ccc(Br)cc3)n2)cc([N+](=O)[O-])c1`, the MIC99 in [1] was 0.5 µM (≈ 0.274 µg/mL); in the assay on Mycobacterium kansasii [2] it was 1 µM (≈ 0.547 µg/mL); against Mycobacterium kansasii [3], 0.5 µM (≈ 0.274 µg/mL); against Mycobacterium avium [4], 1 µM (≈ 0.547 µg/mL); in the assay with Mycobacterium kansasii [5], 2 µM (≈ 1.09 µg/mL); with Mycobacterium kansasii [6] it was 1 µM (≈ 0.547 µg/mL). In addition, the MIC99 in assay [7] is 0.5 µM (≈ 0.274 µg/mL); in the assay on Mycobacterium avium [8], 1 µM (≈ 0.547 µg/mL); with Mycobacterium kansasii [9] it was 1 µM (≈ 0.547 µg/mL); against Mycobacterium kansasii [10] it was 1 µM (≈ 0.547 µg/mL).

As for `O=[N+]([O-])c1cc(-c2nnn(CCCSc3nnnn3-c3ccc(Br)cc3)n2)cc([N+](=O)[O-])c1`, the MIC99 in [1] was found to be 0.5 µM (≈ 0.267 µg/mL); against Mycobacterium kansasii [2], 2 µM (≈ 1.07 µg/mL); in the assay on Mycobacterium kansasii [3], 0.5 µM (≈ 0.267 µg/mL); in the assay on Mycobacterium avium [4], 2 µM (≈ 1.07 µg/mL); in the assay with Mycobacterium kansasii [5] it was 1 µM (≈ 0.533 µg/mL); with Mycobacterium kansasii [6], 0.5 µM (≈ 0.267 µg/mL). In addition, the MIC99 in assay [7] was determined as 0.5 µM (≈ 0.267 µg/mL); with Mycobacterium avium [8], 1 µM (≈ 0.533 µg/mL); against Mycobacterium kansasii [9] it was 1 µM (≈ 0.533 µg/mL); with Mycobacterium kansasii [10] it was 1 µM (≈ 0.533 µg/mL).

Consider `O=[N+]([O-])c1cc(-c2nnnn2Cc2ccc(Cl)cc2)cc([N+](=O)[O-])c1`, for which the MIC99 in assay [1] came to 4 µM (≈ 1.44 µg/mL); in the assay with Mycobacterium kansasii [2] it was 16 µM (≈ 5.77 µg/mL); in the assay on Mycobacterium kansasii [3] it was 8 µM (≈ 2.89 µg/mL); in the assay on Mycobacterium avium [4] it was 16 µM (≈ 5.77 µg/mL); against Mycobacterium kansasii [5], 8 µM (≈ 2.89 µg/mL); in the assay with Mycobacterium kansasii [6], 4 µM (≈ 1.44 µg/mL). Besides, the MIC99 in [7] was found to be 4 µM (≈ 1.44 µg/mL); in the assay with Mycobacterium avium [8] it was 16 µM (≈ 5.77 µg/mL); against Mycobacterium kansasii [9], 16 µM (≈ 5.77 µg/mL); against Mycobacterium kansasii [10], 8 µM (≈ 2.89 µg/mL).

Regarding `O=[N+]([O-])c1cc(-c2nnn(CCCSc3nnnn3-c3ccc(Cl)c(Cl)c3)n2)cc([N+](=O)[O-])c1`, the MIC99 in assay [1] worked out at 0.25 µM (≈ 0.131 µg/mL); against Mycobacterium kansasii [2], 0.5 µM (≈ 0.262 µg/mL); with Mycobacterium kansasii [3], 0.25 µM (≈ 0.131 µg/mL); against Mycobacterium avium [4], 8 µM (≈ 4.19 µg/mL); in the assay on Mycobacterium kansasii [5], 0.5 µM (≈ 0.262 µg/mL); in the assay on Mycobacterium kansasii [6] it was 0.25 µM (≈ 0.131 µg/mL). The MIC99 is 0.25 µM (≈ 0.131 µg/mL) in [7], 4 µM (≈ 2.09 µg/mL) in the assay on Mycobacterium avium [8], 0.5 µM (≈ 0.262 µg/mL) with Mycobacterium kansasii [9] and 0.5 µM (≈ 0.262 µg/mL) with Mycobacterium kansasii [10].

As to `CO[C@H]1/C=C/O[C@@]2(C)Oc3c(C)c(O)c4c(O)c(c(/C=N/N5CCN(C)CC5)c(O)c4c3C2=O)NC(=O)/C(C)=C\C=C\[C@H](C)[C@H](O)[C@@H](C)[C@@H](O)[C@@H](C)[C@H](OC(C)=O)[C@@H]1C` [RIFAMPIN], the MIC99 in assay [1] came to 0.25 µM (≈ 0.206 µg/mL); against Mycobacterium avium [8], 32 µM (≈ 26.3 µg/mL); in the assay on Mycobacterium kansasii [9], 0.25 µM (≈ 0.206 µg/mL); in the assay on Mycobacterium kansasii [10] it was 0.125 µM (≈ 0.103 µg/mL).

Take `O=[N+]([O-])c1cc(-c2nnn(Cc3c(F)cccc3Cl)n2)cc([N+](=O)[O-])c1`: the MIC99 stood at 0.5 µM (≈ 0.189 µg/mL) in assay [1]; 1 µM (≈ 0.379 µg/mL) in the assay with Mycobacterium kansasii [2]; 0.5 µM (≈ 0.189 µg/mL) with Mycobacterium kansasii [3]; 8 µM (≈ 3.03 µg/mL) in the assay on Mycobacterium avium [4]; 1 µM (≈ 0.379 µg/mL) with Mycobacterium kansasii [5]; 0.5 µM (≈ 0.189 µg/mL) in the assay with Mycobacterium kansasii [6]. The MIC99 in assay [7] came to 0.5 µM (≈ 0.189 µg/mL); with Mycobacterium avium [8] it was 4 µM (≈ 1.51 µg/mL); in the assay with Mycobacterium kansasii [9], 1 µM (≈ 0.379 µg/mL); against Mycobacterium kansasii [10] it was 1 µM (≈ 0.379 µg/mL).

For `CCCn1nnc(-c2cc([N+](=O)[O-])cc([N+](=O)[O-])c2)n1`, the MIC99 in [1] turned out to be 8 µM (≈ 2.23 µg/mL); against Mycobacterium kansasii [2], 32 µM (≈ 8.9 µg/mL); in the assay on Mycobacterium kansasii [3], 16 µM (≈ 4.45 µg/mL); in the assay with Mycobacterium avium [4], 62.5 µM (≈ 17.4 µg/mL); against Mycobacterium kansasii [5] it was 32 µM (≈ 8.9 µg/mL); in the assay with Mycobacterium kansasii [6], 16 µM (≈ 4.45 µg/mL). In addition, the MIC99 in assay [7] was 16 µM (≈ 4.45 µg/mL); against Mycobacterium avium [8], 32 µM (≈ 8.9 µg/mL); with Mycobacterium kansasii [9], 32 µM (≈ 8.9 µg/mL); with Mycobacterium kansasii [10], 32 µM (≈ 8.9 µg/mL).

By MIC99 is commonly meant the lowest concentration that inhibits either 99% of growth or 99% of the strains tested, depending on the study.
